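Dose response: 5 concentrations. Exposure: 48 h. Format: 96-well plates. Endpoint: linear interpolation; highest concentration if not reached. GI50 = concentration required for 50% inhibition of growth.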 Activity calls are given as the source filed them. No stated cut-off is given here; in the data, active = GI50 up to about 1.1 µM and inactive = higher.

Among the test systems are ACHN; T47D; BT-549; A498; EKVX; PC-3; OVCAR-3; RPMI-8226; HT-29; IGROV-1; UACC-62; K562; RXF 393; OVCAR-5; UO-31; SK-MEL-5; HOP-92; HOP-62; DLD-1; SW-620.
What all share (experiment): NCI-60 cell line screen, 48 h

As for `CC(C)CCCCCCCCCCCCC(=O)NCC(=O)NC1C(O)C(O)C(Nc2[nH]cnc3ncnc2-3)OC1C(O)CO` (stereo unspecified), the GI50 with ACHN was 0.225 µM (active); in the test with T47D it was 0.32 µM (active); in the test with BT-549 it was 0.207 µM (active); with A498, 0.000248 µM (active); with EKVX it was 0.00175 µM (active); with PC-3, 0.183 µM (active). In addition, the GI50 is 0.000605 µM (active) with OVCAR-3; 0.000525 µM (active) in the test on RPMI-8226; 0.000555 µM (active) with HT-29; 0.000508 µM (active) with IGROV-1; 0.000519 µM (active) with UACC-62; 0.0436 µM (active) with K562. The GI50 was 0.000877 µM (active) in the test with RXF 393; 0.00199 µM (active) in the test with OVCAR-5; 0.000574 µM (active) in the test on UO-31; 0.00114 µM (active) in the test with SK-MEL-5; 0.00049 µM (active) in the test on HOP-92; 0.000453 µM (active) in the test with HOP-62. The GI50 with DLD-1 is 0.0205 µM (active).

Turning to `Cn1c2ccccc2n2c3nc4ccccc4nc3c(C#N)c12`, the GI50 is 75.3 µM (inactive) with ACHN; 21.4 µM (inactive) with T47D; > 100 µM (inactive) in the test on BT-549; 6.44 µM (inactive) with A498; 74.8 µM (inactive) with SW-620; > 100 µM (inactive) with EKVX. Moreover, the GI50 with PC-3 was > 96.8 µM (inactive); with OVCAR-3, > 100 µM (inactive); in the test with RPMI-8226 it was 71 µM (inactive); in the test on HT-29, 14.3 µM (inactive); in the test on IGROV-1, > 100 µM (inactive); with UACC-62 it was 65.5 µM (inactive). For the same molecule, the GI50 was 65.3 µM (inactive) with K562; > 42.3 µM (inactive) in the test with RXF 393; 10 µM (inactive) with OVCAR-5; 77.3 µM (inactive) with UO-31; 4.4 µM (inactive) in the test with SK-MEL-5; > 100 µM (inactive) with HOP-92. For the same molecule, the GI50 is 10 µM (inactive) in the test with HOP-62 and < 0.01 µM (active) in the test with DLD-1.

As for `COC1/C=C\C=C(/C)C(=O)NC2=CC(=O)C(N)=C(CC(C)CC(OC)C(O)C(C)C=C(C)C1OC(N)=O)C2=O` (stereo unspecified), the GI50 was 0.0935 µM (active) in the test with ACHN; 0.653 µM (active) in the test with T47D; 11.8 µM (inactive) with BT-549; 19.1 µM (inactive) with A498; < 0.0133 µM (active) in the test on SW-620; 3.97 µM (inactive) in the test with EKVX. In addition, the GI50 was 0.293 µM (active) with PC-3; 0.0681 µM (active) in the test with OVCAR-3; 0.195 µM (active) with RPMI-8226; < 0.01 µM (active) with HT-29; 0.0318 µM (active) with IGROV-1; 0.0247 µM (active) in the test on UACC-62. Further, the GI50 was 0.0204 µM (active) in the test on K562; 2.93 µM (inactive) with RXF 393; 0.375 µM (active) with OVCAR-5; 0.184 µM (active) in the test with UO-31; 0.042 µM (active) with SK-MEL-5; 0.0156 µM (active) in the test on HOP-92. The figures for the GI50 in the test on HOP-62 and in the test on DLD-1 were < 0.0199 µM (active) and 0.0689 µM (active), respectively.

As for `CC1CC2CC(=O)CC3(C1)C2CCCN3CCCO` (stereo unspecified), the GI50 in the test on ACHN, with A498, with SW-620, with EKVX, in the test with OVCAR-3 and with RPMI-8226 was > 100 µM (inactive) throughout. The GI50 with HT-29, in the test on IGROV-1, with UACC-62, with K562, with RXF 393 and with OVCAR-5 was > 100 µM (inactive) throughout. Besides, the GI50 in the test on UO-31, in the test on SK-MEL-5, in the test on HOP-92, in the test on HOP-62 and in the test with DLD-1 was > 100 µM (inactive) throughout.

Source of the values: ChEMBL document CHEMBL1201862, “PubChem BioAssay data set” (2004).
